Experimental data taken from patent publication US20050159478A1, “Compositions containing d-tocopherol compound polybasic acid partial esters” (priority 2003, published 2005).
Several values for one entry are separate records, joined by “and”; a condition that tells them apart may be missing. Identical values can stand only once.

Assays:
[1] = Oscillatory rheology, softening point at tan(δ) = 1; type: physicochemical; settings: for Rheology (oscillatory) @ Tan(δ) = 1 Temperature (softening point): heating rate 5° C./min, oscillation stress 1.0 Pa, 1.0 Hz
Procedure: Rheology measurements are conducted with TA Instruments Rheolyst AR-1000N rheometer. Experiments are conducted with the parallel plate geometry in a nitrogen atmosphere. The experiments use an oscillation stress of 1.0 Pa at a frequency of 1.0 Hz. The temperature range of the experiments is 40 to 210° C. at a heating rate of 5.0° C./min. Per analogy to rigid sphere or polymers, for TCS samples below the melting point, change in the pseudo G′ and G″ moduli″ is used as an indication of the softening of the sample. The cross-over point corresponds to the point where the ratio of the […] or tan (δ) is equal to one. The temperature at which tan (δ) is equal to one is considered as the softening point for the solid TCS samples. In addition, the second derivative of the loss modulus vs temperature was calculated. A maximum or minimum in the second derivative indicates a curvature or inflexion in the G″ vs T. This can also be taken as indicator of a change in the state of the samples (softening or melting depending on the temperature).
Softening points of these tocopherol succinate samples were identified using oscillatory rheology measurements. The temperature at which tan(δ) is equal to one, i.e., cross-over point (or the point where the samples are less rigid) is considered as their softening point. We call the moduli “pseudo loss and storage moduli”, since below the melting point, the powder cannot in reality be viscoelastic.

[2] = Differential Scanning Calorimetry of tocopherol calcium succinate samples; type: physicochemical; settings: heating rate 5° C./min; several thermal transitions per sample
Procedure: DSC measurements are conducted with a Perkin Elmer Pyris 1 Differential Scanning Calorimeter. Experiments are conducted between 40° C. and 250° C. at heating/cooling rates of 5.0 and 10.0° C./min. During the experiments, the samples are enclosed in an air tight aluminum pan. The aluminum pan is in a nitrogen purge at 30 psi.

Row | Structure (SMILES) | Rheology (oscillatory) @ Tan(δ) = 1 Temperature (softening point) [1] | DSC Enthalpy [2] [J/g] | DSC Onset [2] [°C] | softening point in comparison to synthetic dl-tocopherol calcium succinate ([1]; compared with dl-tocopherol calcium succinate)
1 | Cc1c(C)c2c(c(C)c1OC(=O)CCC(=O)O)CC[C@@](C)(CCC[C@H](C)CCC[C@H](C)CCCC(C)C)O2 [d-α-tocopherol succinic acid] | 74 °C | 80.00 | 74.5 | 
2 | Cc1c(C)c2c(c(C)c1OC(=O)CCC(=O)[O-])CC[C@@](C)(CCC[C@H](C)CCC[C@H](C)CCCC(C)C)O2.Cc1c(C)c2c(c(C)c1OC(=O)CCC(=O)[O-])CC[C@@](C)(CCC[C@H](C)CCC[C@H](C)CCCC(C)C)O2.[Ca+2] [d-α-tocopherol calcium succinate] | 151 °C and 153 °C |  |  | significantly improved, i.e., increased, softening point
3 | Cc1c(C)c2c(c(C)c1OC(=O)CCC(=O)[O-])CC[C@@](C)(CCC[C@H](C)CCC[C@H](C)CCCC(C)C)O2.Cc1c(C)c2c(c(C)c1OC(=O)CCC(=O)[O-])CC[C@@](C)(CCC[C@H](C)CCC[C@H](C)CCCC(C)C)O2.[Ca+2] (racemic) [dl-tocopherol calcium succinate, reference compound] | 147 °C |  |  | 
